Measured values from patent publication US20200121695A1, “COMPOSITIONS AND METHODS FOR TREATING ITCH, SKIN INFLAMMATION, AND PRURITUS” (priority 2017, published 2020).

Assay: Case report: with menstrual-cycle itching, elevated ALP and PBC/AIH overlap syndrome
Assay type: in vivo, human
Conditions: person, Ursodiol 300 mg three times a day plus mycophenolate mofetil 500 mg four times a day for 1 year, together with replacement of Nuva Ring by copper IUD and dietary changes
Excerpt: The itching was predominantly concentrated on hands, feet, back, and stomach area, and the symptoms disappeared as soon as menstruation began. They previously used Nuva Ring for about three years, followed by approximately 5.5 year hiatus. The medical history and gynecological clinical examination were not unusual, with the exception of elevated liver enzymes having been discovered about two years prior to visit. […] The initial treatment thus comprised short-term moderate amounts of Prednisone, with the regiment starting about the time of re-start of the Nuva Ring use. Approximately two months after the start of Prednisone regimen the patient was diagnosed with an overlap syndrome of Primary Biliary Cholangitis/Cirrhosis (PBC) and Autoimmune Hepatitis (AIH). […] New treatment regimen was implemented. Nuva Ring was replaced with a non-hormonal intrauterine device (copper) to enable treatment with immunosuppressive drugs. Additionally steroid drugs, Ursodiol (300 mg three times a day) and mycophenolate mofetil (Cellcept, 500 mg, four times a day), regimen was started in order to reduce AST levels, and continued for 1 year. Finally dietary changes eliminating foods that are rich in zinc and vitamin B12 were effected.

| SMILES | itching symptoms at the time of menstruation |
| --- | --- |
| COc1c(C)c2c(c(O)c1C/C=C(\C)CCC(=O)OCCN1CCOCC1)C(=O)OC2 [mycophenolate mofetil] | significant reduction of the itching symptoms |
| C[C@H](CCC(=O)O)[C@H]1CC[C@H]2[C@@H]3[C@@H](O)C[C@@H]4C[C@H](O)CC[C@]4(C)[C@H]3CC[C@]12C [Ursodiol] | significant reduction of the itching symptoms |
